Laboratory results published in patent US20220315578A1, “BRD9 BIFUNCTIONAL DEGRADERS AND THEIR METHODS OF USE” (NOVARTIS AG, priority 2019, published 2022).

Target: T1, BRD9-GFP (Homo sapiens, UniProt Q9H8M2)
T1 construct: CHYSEL (2A cis-acting hydrolase element) remnant after GFP; mCherry is split off as a separate protein (C); expressed in transfected cells; host or cells: HEK293A cells (Invitrogen R70507), lentiviral transduction with pLenti6-BRD9-GFP-CHYSEL-mCherry, blasticidin selection
T1 sequence (Q9H8M2 1-597): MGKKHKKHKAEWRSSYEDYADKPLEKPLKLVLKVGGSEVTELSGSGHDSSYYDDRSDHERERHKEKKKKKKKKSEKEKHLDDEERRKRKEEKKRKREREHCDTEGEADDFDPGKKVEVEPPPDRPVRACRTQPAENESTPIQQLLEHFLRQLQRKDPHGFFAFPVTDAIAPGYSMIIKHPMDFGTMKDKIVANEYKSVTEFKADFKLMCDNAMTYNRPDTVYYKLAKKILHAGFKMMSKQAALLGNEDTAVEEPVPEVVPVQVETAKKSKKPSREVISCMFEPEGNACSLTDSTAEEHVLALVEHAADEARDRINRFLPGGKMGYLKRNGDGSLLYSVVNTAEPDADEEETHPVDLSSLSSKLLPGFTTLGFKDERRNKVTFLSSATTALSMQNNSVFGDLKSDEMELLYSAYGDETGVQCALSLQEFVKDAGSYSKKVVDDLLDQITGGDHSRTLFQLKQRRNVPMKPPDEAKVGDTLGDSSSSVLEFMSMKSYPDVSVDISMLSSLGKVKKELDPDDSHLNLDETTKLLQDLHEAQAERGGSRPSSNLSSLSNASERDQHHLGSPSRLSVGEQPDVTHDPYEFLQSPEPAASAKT
Assay: BRD9-GFP protein abundance flow cytometry assay in HEK293A cells
Assay type: cell-based
Settings: HEK293A-BRD9-GFP-CHYSEL-mCherry cells; for BRD9 Deg Amax %: 24 h, % protein remaining at the concentration at which maximum degradation is seen; for DC50: 24 h at 37° C., 10-point 1:3 dilution, concentration at which 50% maximal degradation was observed
Protocol: Compounds of the invention were tested in the following cellular assays. The terms in Table 1 are defined as follows: DC50 refers to the concentration at which 50% maximal degradation was observed; deg Amax is the extent of degradation and the value refers to the % protein remaining at the concentration at which maximum degradation is seen.
BRD9-GFP protein abundance flow cytometry assay in HEK293A cells: Degradation of BRD9 was measured in HEK293A cells expressing BRD9-GFP and mCherry from a stably integrated second generation bicistronic BRD9-GFP-CHYSELmCherry construct. Reduction of the GFP signal measured by flow cytometry served as readout for BRD9 degradation after degrader treatment.
The bicistronic BRD9-GFP-CHYSEL-mCherry construct is based on a pLenti6-DEST vector backbone where a GFP-CHYSEL-mCherry cassette was synthesized and inserted downstream of the DEST cassette by Gibson assembly resulting in the new gateway compatible vector pLenti6-DEST-GFP-CHYSEL-mCherry to allow Gateway cloning with pENTR221-BRD9 (w/o ATG) to obtain the final sensor construct pLenti6-BRD9-GFP-CHYSEL-mCherry.
HEK293 Å-BRD9-GFP-CHYSEL-mCherry sensor cells were generated by lentiviral vector transduction using the pLenti6-BRD9-GFP-CHYSEL-mCherry sensor construct described before. […] The mix was incubated for another 20 min at RT and then added to 1 ml of a freshly prepared suspension of HEK293FT cells in a well of a 6-well plate (concentration 1.2×10^6 cells/ml). 1 day after transfection, the medium was replaced with 1.5 ml of complete growth medium (DMEM high Glucose+10% FCS+1% L-Glutamine+1% NEAA+1% NaPyr.). 48 h post transfection supernatant containing viral transducing particles was collected and frozen at −80° C. […] Infection was performed with […] of collected supernatant containing viral transducing particles in 1 ml medium including 8 μg/ml polybrene. 24 h post infection, stably transfected cells were selected with blasticidin at a concentration of 8 μg/ml.
Stable HEK293 Å-BRD9-GFP-CHYSEL-mCherry cells were maintained in complete growth medium (DMEM high Glucose+10% FCS+1% L-Glutamine+1% NEAA+1% NaPyr.) with passaging performed twice per week. On Day 0, HEK293 Å-BRD9-GFP-CHYSEL-mCherry cells were seeded at 10,000 cells/well in a 96-well microtiter plate in […] complete medium. On Day 1, cells were treated in duplicate with 10-point 1:3 dilution series of compound using the HP D300 Digital Dispenser (Tecan). DMSO concentrations were normalized across the plate to 0.1%. On Day 2, after 24 h of incubation at 37° C., treatment media was discarded, cells rinsed with 100 ul/well PBS and then detached using 40 ul trypsin/well for 5 min. Trypsin was neutralized with 100 ul/well PBS+20% FCS). Flow cytometry was performed on the samples using the Beckman Coulter CytoFLEX flow cytometer. Cell identification was then performed using forward (FSC) vs. side scatter (SSC) plots. Single cell discrimination is performed using FSC-Width (FSC-W) vs. FSC-Height (FSC-H) plots. Median GFP/mCherry ratio values for 5,000 single cells are used to determine BRD9 levels. Median GFP/mCherry ratio values from HEK293 Å-mCherry are used as a background signal and thus defining 0% BRD9 signal. Median GFP/mCherry ratio values from DMSO treated HEK293 Å-BRD9-GFP-CHYSEL-mCherry are used to define 100% BRD9 signal for subsequent DC50 curves (concentration at 50% BRD9 degradation). Concentration response curves plotting relative reduction of the GFP/mCherry ratio signal (measured by flow cytometry) versus 10 compound concentrations (starting concentration […], 3 fold dilution steps) of the compounds allowed generation of DC50 values. Data is shown in Tables 2 and 3, in which, DC50 refers to the concentration at which 50% maximal degradation was observed; deg Amax is the extent of degradation and the value refers to the % protein remaining at the concentration at which maximum degradation is seen.

| Structure (SMILES) | BRD9 Deg Amax % [%] | DC50 [nM] |
| --- | --- | --- |
| Cn1cc(-c2ccc(CN3CCC(OC4CCN(CCn5cccc(CN6CCC(=O)NC6=O)c5=O)CC4)CC3)cc2)c2ccncc2c1=O [Compound E37, 1-((1-(2-(4-((1-(4-(2-methyl-1-oxo-1,2-dihydro-2,7-naphthyridin-4-yl)benzyl)piperidin-4-yl)oxy)piperidin-1-yl)ethyl)-2-oxo-1,2-dihydropyridin-3-yl)methyl)dihydropyrimidine-2,4(1H,3H)-dione] | 13.77 | 9 |
| CCCCn1cc(-c2ccc(O[C@H]3CCN(CC4CCN(CCn5cccc(CN6CCC(=O)NC6=O)c5=O)CC4)C[C@@H]3F)cc2)c2ccncc2c1=O [Compound E28, 1-((1-(2-(4-(((3S,4S)-4-(4-(2-butyl-1-oxo-1,2-dihydro-2,7-naphthyridin-4-yl)phenoxy)-3-fluoropiperidin-1-yl)methyl)piperidin-1-yl)ethyl)-2-oxo-1,2-dihydropyridin-3-yl)methyl)dihydropyrimidine-2,4(1H,3H)-dione] | 23.20 | 21 |
| CCCn1cc(-c2cc(OC)c(CCN3CCN(CC4CCN(C(=O)c5ccc(Cl)c(N6CCC(=O)NC6=O)c5)CC4)CC3)c(OC)c2)c(C)c(C)c1=O [Compound E48, 1-(2-chloro-5-(4-((4-(4-(4,5-dimethyl-6-oxo-1-propyl-1,6-dihydropyridin-3-yl)-2,6-dimethoxyphenethyl)piperazin-1-yl)methyl)piperidine-1-carbonyl)phenyl)dihydropyrimidine-2,4(1H,3H)-dione] | 15.41 | 2 |
| CCCCCCn1cc(-c2cc(OC)c(CCN3CCC(OC4CCN(C(=O)c5ccc(F)c(N6CCC(=O)NC6=O)c5)CC4)CC3)c(OC)c2)c2ccncc2c1=O [Compound E15, 1-(2-fluoro-5-(4-((1-(4-(2-hexyl-1-oxo-1,2-dihydro-2,7-naphthyridin-4-yl)-2,6-dimethoxyphenethyl)piperidin-4-yl)oxy)piperidine-1-carbonyl)phenyl)dihydropyrimidine-2,4(1H,3H)-dione] | 19.85 | 17 |
| COc1cc(-c2cn(C)c(=O)c3cnccc23)cc(OC)c1CCN1CCC(OC2CCN(C(=O)COc3ccc(N4CCC(=O)NC4=O)cc3)CC2)CC1 [Compound A25, 1-(4-(2-(4-((1-(2,6-Dimethoxy-4-(2-methyl-1-oxo-1,2-dihydro-2,7-naphthyridin-4-yl)phenethyl)piperidin-4-yl)oxy)piperidin-1-yl)-2-oxoethoxy)phenyl)dihydropyrimidine-2,4(1H,3H)-dione] | 18.22 | 10 |
| COc1cc(-c2cc(C)c(=O)n(C)c2)c(OC)cc1CN1CCC(OC2CCN(C(=O)c3cccc(N4CCC(=O)NC4=O)c3)CC2)CC1 [Compound A16, 1-(3-(4-((1-(4-(1,5-Dimethyl-6-oxo-1,6-dihydropyridin-3-yl)-2,5-dimethoxybenzyl)piperidin-4-yl)oxy)piperidine-1-carbonyl)phenyl)dihydropyrimidine-2,4(1H,3H)-dione] | 6.37 | 32 |
| CCCCn1cc(-c2cc(F)c(CN3CCC(OC4CCN(C(=O)COc5ccc(C)c(N6CCC(=O)NC6=O)c5)CC4)CC3)c(F)c2)c2ccncc2c1=O [Compound E45, 1-(5-(2-(4-((1-(4-(2-butyl-1-oxo-1,2-dihydro-2,7-naphthyridin-4-yl)-2,6-difluorobenzyl)piperidin-4-yl)oxy)piperidin-1-yl)-2-oxoethoxy)-2-methylphenyl)dihydropyrimidine-2,4(1H,3H)-dione] | 15.28 | 7 |
| COc1ccc(C(=O)N2CCC(OC3CCN(Cc4c(OC)cc(-c5cn(C)c(=O)c6cnccc56)cc4OC)CC3)CC2)cc1N1CCC(=O)NC1=O [Compound A42, 1-(5-(4-((1-(2,6-Dimethoxy-4-(2-methyl-1-oxo-1,2-dihydro-2,7-naphthyridin-4-yl)benzyl)piperidin-4-yl)oxy)piperidine-1-carbonyl)-2-methoxyphenyl)dihydropyrimidine-2,4(1H,3H)-dione] | 13.53 | 98 |

Further compounds by falling DC50, results first:

| BRD9 Deg Amax % [%] | DC50 [nM] | Structure (SMILES) |
| --- | --- | --- |
| 16.25 | 70 | COc1cc(-c2cc(C)c(=O)n(C)c2)cc(OC)c1CN1CCC(OC2CCN(C(=O)COc3ccc(N4CCC(=O)NC4=O)cc3)CC2)CC1 [Compound A8, 1-(4-(2-(4-((1-(4-(1,5-Dimethyl-6-oxo-1,6-dihydropyridin-3-yl)-2,6-dimethoxybenzyl)piperidin-4-yl)oxy)piperidin-1-yl)-2-oxoethoxy)phenyl)dihydropyrimidine-2,4(1H,3H)-dione] |
| 17.54 | 7 | CCCCn1cc(-c2cc(OC)c(OCC3CCN(CC4CCN(C(=O)c5ccc(OC)c(N6CCC(=O)NC6=O)c5)CC4)CC3)c(OC)c2)c2ccncc2c1=O [Compound B7, 1-(5-(4-((4-((4-(2-butyl-1-oxo-1,2-dihydro-2,7-naphthyridin-4-yl)-2,6-dimethoxyphenoxy)methyl)piperidin-1-yl)methyl)piperidine-1-carbonyl)-2-methoxyphenyl)dihydropyrimidine-2,4(1H,3H)-dione] |
| 16.55 | 6 | CCCCn1cc(-c2cc(OC)c(OC3CCN(CC4CCN(C(=O)c5ccc(OC)c(N6CCC(=O)NC6=O)c5)CC4)CC3)c(OC)c2)c2ccncc2c1=O [Compound B10, 1-(5-(4-((4-(4-(2-butyl-1-oxo-1,2-dihydro-2,7-naphthyridin-4-yl)-2,6-dimethoxyphenoxy)piperidin-1-yl)methyl)piperidine-1-carbonyl)-2-methoxyphenyl)dihydropyrimidine-2,4(1H,3H)-dione] |
| 14.33 | 1 | CCCCn1cc(-c2cc(OC)c(OC3CCN(CC4CCN(C(=O)c5ccc(Cl)c(N6CCC(=O)NC6=O)c5)CC4)CC3)c(OC)c2)c2ccncc2c1=O [Compound B9, 1-(5-(4-((4-(4-(2-butyl-1-oxo-1,2-dihydro-2,7-naphthyridin-4-yl)-2,6-dimethoxyphenoxy)piperidin-1-yl)methyl)piperidine-1-carbonyl)-2-chlorophenyl)dihydropyrimidine-2,4(1H,3H)-dione] |
